ChEMBL document CHEMBL2434943, “Elaboration of thorough simplified vinca alkaloids as antimitotic agents based on pharmacophore similarity” (Eur J Med Chem, 2013)
Structures can show the parent of a compound that is named as a salt. One block for each molecule: values may come before it. Calls of active or inactive are those of the source. No cut-off for these calls is given here.

Key:
[1] = system: MDA-MB-231; test: Cytotoxicity against human MDA-MB-231 cells assessed as growth inhibition after 72 hrs by MTT assay; type: functional, cell-based; conditions: MDA-MB-231, 72 h
[2] = system: HepG2; test: Cytotoxicity against adriamycin-resistant human HepG2 cells assessed as growth inhibition after 72 hrs by MTT assay; type: functional, cell-based; conditions: HepG2, 72 h
[3] = system: K562; test: Cytotoxicity against human K562 cells assessed as growth inhibition after 72 hrs by MTT assay; type: functional, cell-based; conditions: K562, 72 h
[4] = system: MCF7; test: Cytotoxicity against human MCF7 cells assessed as growth inhibition after 72 hrs by MTT assay; type: functional, cell-based; conditions: MCF7, 72 h
[5] = system: HepG2; test: Cytotoxicity against human HepG2 cells assessed as growth inhibition after 72 hrs by MTT assay; type: functional, cell-based; conditions: HepG2, 72 h
[6] = biological target: Tubulin (Homo sapiens) (UniProt P68371+Q9H4B7+P0DPH7+P68366+Q13509+Q71U36+P04350+Q3ZCM7+P07437+P68363+Q9BQE3+Q6PEY2+Q13885+Q9BVA1+Q9BUF5); test: Inhibition of tubulin polymerization (unknown origin) after 90 mins; type: protein-complex assay
[7] = Cytotoxicity against KM mouse splenic lymphocytes assessed as growth inhibition after 72 hrs by MTT assay; conditions: Splenic lymphocyte
[8] = Cytotoxicity against KM mouse splenic lymphocytes assessed as growth inhibition up to 50 uM after 72 hrs by MTT assay; conditions: splenic lymphocyte
[9] = system: HepG2; test: Antimitotic activity in human HepG2 cells assessed as cell morphological changes at 18 nM after 12 hrs by DAPI staining-based laser scanning confocal microscopic analysis; type: functional

Compound: CC1(C)C(/C=C/c2ccc(Br)cc2)=Nc2ccccc21
IC50 [1]: 5.16 µM
IC50 [2]: 9.92 µM
IC50 [3]: 20.2 µM
IC50 [4]: 5.26 µM
IC50 [5]: 15.6 µM

inhibition [6]: Active
Compound: CC1(C)C(/C=C/c2ccc(C(F)(F)F)cc2)=Nc2ccccc21
IC50 [1]: 2.63 µM
IC50 [7]: 35.4 µM
IC50 [2]: 7.91 µM
IC50 [3]: 8.87 µM
IC50 [4]: 1.45 µM
IC50 [5]: 9.49 µM

Compound: CC1(C)C(/C=C/c2c[nH]c3cc(Cl)ccc23)=Nc2ccccc21
IC50 [1]: 20.1 µM
IC50 [2]: 9.98 µM
IC50 [3]: 13 µM
IC50 [4]: 19 µM
IC50 [5]: 18.1 µM

Compound: COc1ccc(/C=C/C2=Nc3ccccc3C2(C)C)cc1OC
IC50 [1]: 9.11 µM
IC50 [2]: 28.6 µM
IC50 [3]: 37.1 µM
IC50 [4]: 12 µM
IC50 [5]: 35 µM

Compound: CC1(C)C(/C=C/c2c[nH]c3ccc(Br)cc23)=Nc2ccccc21
IC50 [1]: 21.8 µM
IC50 [2]: 9.1 µM
IC50 [3]: 20.1 µM
IC50 [4]: 21 µM
IC50 [5]: 21.5 µM

Compound: Cc1ccc(/C=C/C2=Nc3ccccc3C2(C)C)cc1
IC50 [1]: 22 µM
IC50 [2]: > 50 µM
IC50 [3]: 26.1 µM
IC50 [4]: 13.2 µM
IC50 [5]: 43.9 µM

Compound: CC[C@]1(O)C[C@@H]2CN(CCc3c([nH]c4ccccc34)[C@@](C(=O)OC)(c3cc4c(cc3OC)N(C)[C@H]3[C@@](O)(C(=O)OC)[C@H](OC(C)=O)[C@]5(CC)C=CCN6CC[C@]43[C@@H]65)C2)C1 [VINBLASTINE SULFATE]
IC50 [1]: 0.0083 µM
IC50 [2]: 0.056 µM
IC50 [3]: 0.016 µM
IC50 [4]: 0.007 µM
IC50 [5]: 0.019 µM

Compound: CCN(CC)c1ccc(/C=C/C2=Nc3ccccc3C2(C)C)cc1
IC50 [1]: 16.1 µM
IC50 [2]: 15.1 µM
IC50 [3]: 28.2 µM
IC50 [4]: 11.8 µM
IC50 [5]: 22.9 µM

Compound: COc1cc(/C=C/C2=Nc3ccccc3C2(C)C)cc(OC)c1OC
IC50 [1]: 4.13 µM
Activity [8]: Non-toxic
IC50 [2]: 10.8 µM
IC50 [3]: 15.3 µM
IC50 [4]: 1.76 µM
IC50 [5]: 12.7 µM

Compound: CC1(C)C(/C=C/c2c[nH]c3cc(F)ccc23)=Nc2ccccc21
IC50 [1]: 24.4 µM
IC50 [2]: 14.9 µM
IC50 [3]: 20.2 µM
IC50 [4]: 3.47 µM
IC50 [5]: 9.87 µM

Compound: CC[C@]1(O)C[C@@H]2CN(CCc3c([nH]c4ccccc34)[C@@](C(=O)OC)(c3cc4c(cc3OC)N(C)[C@H]3[C@@](O)(C(=O)OC)[C@H](OC(C)=O)[C@]5(CC)C=CCN6CC[C@]43[C@@H]65)C2)C1 [VINBLASTINE]
IC50 [7]: 0.0016 µM

Compound: CCC1=C[C@@H]2CN3CCc4c([nH]c5ccccc45)[C@@](C(=O)OC)(C2)[C@@H]13
IC50 [1]: > 50 µM
IC50 [2]: > 50 µM
IC50 [3]: > 50 µM
IC50 [4]: > 50 µM
IC50 [5]: > 50 µM

Compound: Cc1cccc(/C=C/C2=Nc3ccccc3C2(C)C)c1
IC50 [1]: 10.1 µM
IC50 [2]: 10.2 µM
IC50 [3]: 20.7 µM
IC50 [4]: 8.31 µM
IC50 [5]: 16.4 µM

Compound: COc1ccc2[nH]cc(/C=C/C3=Nc4ccccc4C3(C)C)c2c1
IC50 [1]: 14 µM
IC50 [2]: 23.4 µM
IC50 [3]: 16.9 µM
IC50 [4]: 7.05 µM
IC50 [5]: 18.5 µM

Compound: Cc1c(/C=C/C2=Nc3ccccc3C2(C)C)c2ccccc2n1C
IC50 [1]: 38.5 µM
IC50 [2]: 3.34 µM
IC50 [3]: 23.2 µM
IC50 [4]: 17.1 µM
IC50 [5]: 35.9 µM

Compound: CCC12C=CCN3CC[C@@]4(c5ccc(OC)cc5N(C)[C@H]4[C@@](O)(C(=O)OC)[C@@H]1OC(C)=O)[C@@H]32 (stereo partly specified) [VINDOLINE]
IC50 [1]: > 50 µM
IC50 [2]: > 50 µM
IC50 [3]: > 50 µM
IC50 [4]: > 50 µM
IC50 [5]: > 50 µM

Compound: CC1(C)C(/C=C/c2cccc(C(F)(F)F)c2)=Nc2ccccc21
IC50 [1]: 3.2 µM
IC50 [7]: 36.3 µM
IC50 [2]: 9.54 µM
IC50 [3]: 9.83 µM
IC50 [4]: 2.13 µM
IC50 [5]: 11.7 µM

Compound: Cc1ccc2[nH]cc(/C=C/C3=Nc4ccccc4C3(C)C)c2c1
IC50 [1]: 14.6 µM
IC50 [2]: 6.13 µM
IC50 [3]: 21.2 µM
IC50 [4]: 15.9 µM
IC50 [5]: 18.7 µM

Compound: CC1(C)C(/C=C/c2c[nH]c3cccc(C#N)c23)=Nc2ccccc21
IC50 [1]: 18.8 µM
Activity [8]: Non-toxic
IC50 [2]: 3.18 µM
IC50 [3]: 15.8 µM
IC50 [4]: 8.95 µM
IC50 [5]: 9.22 µM

Compound: CN(C)c1ccc(/C=C/C2=Nc3ccccc3C2(C)C)cc1
IC50 [1]: 15.1 µM
IC50 [2]: 22.1 µM
IC50 [3]: 25.7 µM
IC50 [4]: 8.1 µM
IC50 [5]: 17.9 µM

Compound: CC1(C)C(/C=C/c2c[nH]c3c([N+](=O)[O-])cccc23)=Nc2ccccc21
IC50 [1]: 26.1 µM
IC50 [2]: 4 µM
IC50 [3]: 21 µM
IC50 [4]: 11.2 µM
IC50 [5]: 16.8 µM

inhibition [6]: Active
Compound: COc1cccc(/C=C/C2=Nc3ccccc3C2(C)C)c1
IC50 [1]: 3.1 µM
IC50 [2]: 9.94 µM
IC50 [3]: 9.64 µM
IC50 [4]: 2.19 µM
IC50 [5]: 11.4 µM

Compound: Cn1cc(/C=C/C2=Nc3ccccc3C2(C)C)c2ccccc21
IC50 [1]: 22.4 µM
IC50 [2]: 18.7 µM
IC50 [3]: 20.8 µM
IC50 [4]: 12.6 µM
IC50 [5]: 39.4 µM

Compound: COc1ccccc1/C=C/C1=Nc2ccccc2C1(C)C
IC50 [1]: 10.7 µM
IC50 [2]: 12.6 µM
IC50 [3]: 22.9 µM
IC50 [4]: 5.13 µM
IC50 [5]: 22 µM

Compound: CC1(C)C(/C=C/c2c[nH]c3ccccc23)=Nc2ccccc21
IC50 [1]: 11.6 µM
Activity [8]: Non-toxic
IC50 [2]: 12.2 µM
IC50 [3]: 23 µM
IC50 [4]: 3.88 µM
IC50 [5]: 17.9 µM

Compound: Cc1[nH]c2ccccc2c1/C=C/C1=Nc2ccccc2C1(C)C
IC50 [1]: 32.6 µM
IC50 [2]: 4.41 µM
IC50 [3]: 22.7 µM
IC50 [4]: 6.25 µM
IC50 [5]: 15.4 µM

Compound: CC1(C)C(/C=C/c2ccccc2[N+](=O)[O-])=Nc2ccccc21
IC50 [1]: 3.77 µM
IC50 [2]: 9.74 µM
IC50 [3]: 13 µM
IC50 [4]: 1.75 µM
IC50 [5]: 12.7 µM

Compound: CC1(C)C(/C=C/c2ccc([N+](=O)[O-])cc2)=Nc2ccccc21
IC50 [1]: 2.01 µM
IC50 [7]: 20.7 µM
IC50 [2]: 2.49 µM
IC50 [3]: 4.32 µM
IC50 [4]: 0.96 µM
IC50 [5]: 5.55 µM

Compound: COc1ccc(/C=C/C2=Nc3ccccc3C2(C)C)cc1
IC50 [1]: 15.6 µM
IC50 [2]: 47 µM
IC50 [3]: 19.9 µM
IC50 [4]: 10.4 µM
IC50 [5]: 20.8 µM

inhibition [6]: Active
Compound: CC[C@]1(O)C[C@@H]2CN(CCc3c([nH]c4ccccc34)[C@@](C(=O)OC)(c3cc4c(cc3OC)N(C)[C@H]3[C@@](O)(C(=O)OC)[C@H](OC(C)=O)[C@]5(CC)C=CCN6CC[C@]43[C@@H]65)C2)C1
Activity [9]: Active
